US8987287B2, “Spirocyclic morphinans and their use” (Purdue Pharma L.P., priority 2012, dated 2015)

Tests used:
μ-opioid receptor = μ-opioid receptor (Homo sapiens (Human), UniProt P35372); assay: μ-opioid receptor [35S]GTPγS functional assay, HEK-293 or CHO cells; format: biochemical; details: for Emax: relative to DAMGO, HEK-293 or CHO cells
Method: μ-Opioid Receptor Functional Assay Procedures: [^35S]GTPγS functional assays were conducted using freshly thawed μ-receptor membranes prepared in-house from a cell line expressing recombinant μ opioid receptor in a HEK-293, CHO or U-2 OS cell background, or purchased from a commercial source (Perkin Elmer, Shelton, Conn.; or DiscovRx, Fremont, Calif.). Assay reactions were prepared by sequentially adding the following reagents to binding buffer (100 mM NaCl, 10 mM MgCl2, 20 mM HEPES, pH 7.4) on ice (final concentrations indicated): membrane protein (0.026 mg/mL), saponin ([…]), GDP ([…]) and [^35S]GTPγS (0.20 nM; Perkin Elmer, Shelton, Conn.). The prepared membrane solution (190 μl/well) was transferred to 96-shallow well polypropylene plates containing 10 μl of 20× concentrated stock solutions of the agonist [D-Ala^2, N-methyl-Phe^4 Gly-ol^5]-enkephalin (DAMGO) prepared in dimethyl sulfoxide (DMSO). Plates were incubated for 30 min at about 25° C. with shaking. Reactions were terminated by rapid filtration onto 96-well Unifilter GF/B filter plates (Perkin Elmer, Shelton, Conn.) using a 96-well tissue harvester (Perkin Elmer, Shelton, Conn.) followed by three filtration washes with 200 μl of ice-cold wash buffer (10 mM NaH2PO4, 10 mM Na2HPO4, pH 7.4). Filter plates were subsequently dried at 50° C. for 2-3 hours. BetaScint scintillation cocktail (Perkin Elmer, Shelton, Conn.) was added (50 μl/well) and plates were counted using a Packard Top-Count for 1 min/well. Data were analyzed using the sigmoidal dose-response curve fitting functions in GraphPad PRISM v. 3.0, or an in-house function for non-linear, sigmoidal dose-response curve-fitting.
μ-Opioid Receptor Functional Data: μ GTP EC50 is the concentration of a compound providing 50% of the maximal response for the compound at a μ-opioid receptor.
μ GTP Emax (%) is the maximal effect elicited by a compound relative to the effect elicited by DAMGO, a standard μ agonist. Generally, the μ GTP Emax (%) value measures the efficacy of a compound to treat or prevent pain or other Conditions.
In TABLE 2, activity response of certain Compounds of the Invention to the μ-, δ- and κ-opioid receptors was determined as described above for functional assays using HEK-293 or CHO cells.

κ opioid receptor = κ opioid receptor (Homo sapiens (Human), UniProt P41145); assay: κ-opioid receptor radioligand ([3H]-U69,593) dose-displacement binding assay; details: binding affinity, read-out: Opioid Receptor Ki (nM) κ
Method: κ-Opioid Receptor Binding Assay Procedures: Membranes from recombinantHEK-293 cells, CHO or U-2 OS cells expressing the recombinant human κ opioid receptor (κ) were prepared by lysing cells in ice cold hypotonic buffer (2.5 mM MgCl2, 50 mM HEPES, pH 7.4) (10 mL/10 cm dish) followed by homogenization with a tissue grinder/Teflon pestle. Membranes were collected by centrifugation at 30,000×g for 15 min at 4° C. and pellets were resuspended in hypotonic buffer to a final concentration of 1-3 mg/mL. Protein concentrations were determined using the BioRad protein assay reagent with bovine serum albumen as standard. Aliquots of κ receptor membranes were stored at −80° C.
Radioligand dose displacement assays used 0.4 nM [^3H]-U69,593 (GE Healthcare, Piscataway, N.J.; 40 Ci/mmole) with 15 μg membrane protein (recombinant κ opioid receptor expressed in HEK 293 cells; in-house prep) in a final volume of 200 μl binding buffer (5% DMSO, 50 mM Trizma base, pH 7.4). Non-specific binding was determined in the presence of 10 μM unlabeled naloxone or U69,593. All reactions were performed in 96-well polypropylene plates for 1 hour at a temperature of about 25° C. Binding reactions were terminated by rapid filtration onto 96-well Unifilter GF/C filter plates (Perkin Elmer, Shelton, Conn.) presoaked in 0.5% polyethylenimine (Sigma). Harvesting was performed using a 96-well tissue harvester (Perkin Elmer, Shelton, Conn.) followed by five filtration washes with 200 μl ice-cold binding buffer. Filter plates were subsequently dried at 50° C. for 1-2 hours. Fifty μl/well scintillation cocktail (Perkin Elmer, Shelton, Conn.) was added and plates were counted in a Packard Top-Count for 1 min/well.
In TABLE 1, binding affinity of certain Compounds of the Invention to the μ-, δ- and κ-opioid receptors was determined as described above.

| Compound | EC50 (μ-opioid receptor) | Emax (μ-opioid receptor) | Ki (κ opioid receptor) |
| --- | --- | --- | --- |
| O=C1NC[C@@]2(CC[C@@]3(O)[C@H]4Cc5ccc(O)cc5[C@@]3(CCN4CC3CC3)C2)N1 [Compound 5, (4bR,4′S,8aS,9R)-11-(cyclopropylmethyl)-3,8a-dihydroxy-5,7,8,8a,9,10-hexahydrospiro[9,4b-(epiminoethano)phenanthrene-6,4′-imidazolidin]-2′-one] | > 20 µM | -1% | 0.94 ± 0.18 nM |
| O=C1NC(=O)[C@@]2(CC[C@@]3(O)[C@H]4Cc5ccc(O)cc5[C@@]3(CCN4CC3CC3)C2)N1 [Compound 3, (4bR,4′S,8aS,9R)-11-(cyclopropylmethyl)-3,8a-dihydroxy-5,7,8,8a,9,10-hexahydrospiro[9,4b-(epiminoethano)phenanthrene-6,4′-imidazolidine]-2′,5′-dione] | > 20 µM | 10.6 ± 7.11% | 0.6 ± 0.15 nM |
